Measurements reported in the supplement of paper PMC10307832.

Key:
Assay in all cases: relative viability (nuclei count vs DMSO), 5 days (fraction); higher = more cells survive
IDH-C35 + Pemetrexed = compound: Cc1ccccc1C(C(=O)NC1CCCCC1)N(C(=O)Cn1ccnc1C)c1cccc(F)c1 [IDH-C35] + Nc1nc2[nH]cc(CCc3ccc(C(=O)N[C@@H](CCC(=O)O)C(=O)O)cc3)c2c(=O)[nH]1 [Pemetrexed] (partner 0.2 µM)
Procedure, shortened: (§1)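 Dosing by pin tool came one day after lung cancer cell lines were seeded in 1536-well plates, using either one drug or a fixed anchor-drug dose plus five library-drug doses (not always all listed) in √10 steps. After 5 days, nuclei were counted on 4× images. Relative viability is treated-well nuclei count divided by vehicle-well nuclei count, and values are medians of duplicate plates.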

[1] = compound: CC1=C(C(=NN1)C)CC2=C(C3=C(S2)N(C(=O)N(C3=O)C)CC(C)C)C(=O)N4C[C@@H](CO4)O + Cc1nc(Nc2ncc(C(=O)Nc3c(C)cccc3Cl)s2)cc(N2CCN(CCO)CC2)n1 [Dasatinib] (partner 0.075 µM)
Procedure, shortened: as §1

IDH-C35 + Tozasertib = compound: Cc1ccccc1C(C(=O)NC1CCCCC1)N(C(=O)Cn1ccnc1C)c1cccc(F)c1 [IDH-C35] + Cc1cc(Nc2cc(N3CCN(C)CC3)nc(Sc3ccc(NC(=O)C4CC4)cc3)n2)n[nH]1 [Tozasertib] (partner 0.1 µM)
Procedure, shortened: as §1

IDH-C35 + Bortezomib = compound: Cc1ccccc1C(C(=O)NC1CCCCC1)N(C(=O)Cn1ccnc1C)c1cccc(F)c1 [IDH-C35] + CC(C)C[C@H](NC(=O)[C@H](Cc1ccccc1)NC(=O)c1cnccn1)B(O)O [Bortezomib] (partner 0.002 µM)
Procedure, shortened: as §1

Row | Cell Line | relative viability (IDH-C35 + Pemetrexed; first compound 0.08 µM) | relative viability (IDH-C35 + Pemetrexed; first compound 0.253 µM) | relative viability (IDH-C35 + Pemetrexed; first compound 0.8 µM) | relative viability (IDH-C35 + Pemetrexed; first compound 8 µM) | relative viability ([1]; first compound 0.0025 µM) | relative viability ([1]; first compound 0.007906 µM) | relative viability ([1]; first compound 0.025 µM) | relative viability ([1]; first compound 0.07906 µM) | relative viability ([1]; first compound 0.25 µM) | relative viability (IDH-C35 + Tozasertib; first compound 0.08 µM) | relative viability (IDH-C35 + Tozasertib; first compound 0.253 µM) | relative viability (IDH-C35 + Tozasertib; first compound 0.8 µM) | relative viability (IDH-C35 + Tozasertib; first compound 2.53 µM) | relative viability (IDH-C35 + Tozasertib; first compound 8 µM) | relative viability (IDH-C35 + Bortezomib; first compound 0.08 µM) | relative viability (IDH-C35 + Bortezomib; first compound 0.253 µM) | relative viability (IDH-C35 + Bortezomib; first compound 0.8 µM) | relative viability (IDH-C35 + Bortezomib; first compound 8 µM) | relative viability (IDH-C35 + Pemetrexed; first compound 2.53 µM) | relative viability (IDH-C35 + Bortezomib; first compound 2.53 µM)
1 | LCLC-97TM1 | 0.216 | 0.173 | 0.201 | 0.145 | 0.898 | 0.897 | 0.735 | 0.852 | 0.878 | 0.397 | 0.189 | 0.184 | 0.196 | 0.231 | 0.616 | 0.691 | 0.53 | 0.511 | – | –
2 | LCLC-103H | 0.452 | 0.49 | 0.467 | 0.428 | 0.669 | 0.493 | 0.489 | 0.357 | 0.513 | 0.554 | 0.435 | 0.47 | 0.499 | 0.38 | 1.09 | 1.14 | 1.07 | 0.973 | 0.48 | 0.98
3 | LOU-NH91 | 0.422 | 0.393 | 0.425 | 0.361 | 0.61 | 0.588 | 0.55 | 0.54 | 0.619 | 0.739 | 0.69 | 0.687 | 0.598 | 0.652 | 0.574 | 0.485 | 0.519 | 0.502 | 0.347 | 0.527
4 | LU99A | 0.191 | 0.216 | 0.173 | 0.191 | 0.584 | 0.502 | 0.533 | 0.508 | 0.462 | 0.281 | 0.255 | 0.257 | 0.296 | 0.257 | 1.14 | 1.1 | 1.1 | 1.16 | 0.187 | 1.05
5 | LXF-289 | 1.02 | 0.857 | 0.859 | 0.797 | 0.248 | 0.241 | 0.226 | 0.142 | 0.247 | 0.17 | 0.173 | 0.201 | 0.209 | 0.166 | 0.984 | 1 | 0.941 | 0.955 | 0.894 | 0.999
6 | NCI-H23 | 0.642 | 0.848 | 0.625 | 0.652 | 0.926 | 1.05 | 0.82 | 0.725 | 0.964 | 0.325 | 0.399 | 0.414 | 0.313 | 0.406 | 0.977 | 0.836 | 1.07 | 0.94 | 0.773 | 1.13
7 | NCI-H322M | 0.622 | 0.554 | 0.644 | 0.608 | 0.257 | 0.254 | 0.271 | 0.201 | 0.245 | 0.46 | 0.494 | 0.466 | 0.467 | 0.517 | 1.22 | 1.17 | 1.15 | 1.27 | 0.578 | 1.21
8 | NCI-H441 | 0.256 | 0.272 | 0.269 | 0.244 | 0.65 | 0.59 | 0.679 | 0.411 | 0.583 | 0.597 | 0.561 | 0.623 | 0.624 | 0.583 | 0.524 | – | 0.617 | 0.447 | 0.292 | 0.508
9 | NCI-H460 | 0.0621 | 0.0643 | 0.0648 | 0.0759 | 0.552 | 0.675 | 0.532 | 0.517 | 0.494 | 0.614 | 0.396 | 0.493 | 0.336 | 0.412 | 1.2 | 1.18 | 1.08 | 1.12 | 0.0655 | 1.11
10 | NCI-H520 | 0.776 | 0.548 | 0.715 | 0.622 | 0.231 | 0.194 | 0.161 | 0.154 | 0.179 | 0.327 | 0.427 | 0.54 | 0.405 | 0.409 | 0.759 | 0.344 | 0.636 | 0.756 | 0.699 | 0.731
11 | NCI-H596 | 0.473 | 0.475 | 0.529 | 0.455 | 0.586 | 0.619 | 0.658 | 0.512 | 0.594 | 1.01 | 0.866 | 0.937 | – | 0.788 | 1.02 | 0.998 | 1.2 | 0.999 | 0.549 | 1.2
12 | NCI-H647 | 0.186 | 0.161 | 0.175 | 0.167 | 0.408 | 0.241 | 0.194 | 0.112 | 0.15 | 0.29 | 0.244 | 0.21 | 0.261 | 0.284 | 1.08 | 0.805 | 0.989 | 0.889 | 0.171 | 1.19
13 | NCI-H650 | 0.911 | 0.96 | 0.893 | 0.893 | 0.493 | 0.548 | 0.365 | 0.514 | 0.443 | 0.669 | 0.765 | 0.768 | – | 0.698 | 0.774 | 0.93 | 0.755 | 0.861 | – | –
14 | NCI-H661 | 0.95 | 0.948 | 0.893 | 0.879 | 0.907 | 0.833 | 0.906 | 0.881 | 0.872 | 0.326 | 0.358 | 0.372 | 0.346 | 0.355 | 0.953 | 0.809 | 0.837 | 0.761 | 0.901 | 0.828
15 | NCI-H838 | 0.241 | 0.248 | 0.272 | 0.235 | 0.347 | 0.322 | 0.276 | 0.197 | 0.304 | 0.249 | 0.276 | 0.292 | 0.281 | 0.234 | 1.06 | 0.758 | 0.668 | 1.08 | 0.255 | 1.1
16 | NCI-H1355 | 1.11 | 1.02 | 0.987 | 1 | 0.759 | 0.701 | 0.783 | 0.689 | 0.685 | 0.538 | 0.606 | 0.601 | 0.526 | 0.502 | 1.21 | 1.15 | 1.16 | 1.05 | 1 | 1.17
17 | NCI-H1437 | 0.35 | 0.291 | 0.362 | 0.296 | 0.393 | 0.409 | 0.314 | 0.488 | 0.434 | 0.411 | 0.443 | 0.405 | 0.413 | 0.366 | 0.629 | 0.456 | 0.451 | 0.548 | 0.299 | 0.639
18 | NCI-H1650 | 0.334 | 0.4 | 0.323 | 0.362 | 0.425 | 0.362 | 0.287 | 0.457 | 0.227 | 0.407 | 0.393 | 0.378 | 0.444 | 0.355 | 0.227 | 0.205 | 0.229 | 0.213 | 0.428 | 0.213
19 | NCI-H1651 | 0.53 | 0.615 | 0.571 | 0.641 | 0.445 | 0.372 | 0.352 | 0.348 | 0.345 | 0.696 | 0.737 | 0.643 | 0.632 | 0.683 | 0.884 | 0.999 | 0.878 | 0.876 | 0.607 | 0.992
20 | NCI-H1666 | 0.881 | 0.825 | 0.822 | 0.718 | 0.796 | 0.88 | 0.776 | 0.798 | 0.923 | 0.585 | 0.752 | 0.619 | 0.58 | 0.536 | 0.769 | 0.881 | 0.914 | 0.691 | 0.874 | 0.872
21 | NCI-H1734 | 0.432 | 0.423 | 0.443 | 0.409 | 0.504 | 0.543 | 0.453 | 0.484 | 0.473 | 0.28 | 0.27 | 0.246 | 0.247 | 0.249 | 1.06 | 1.17 | 0.85 | 0.914 | 0.413 | 0.892
22 | NCI-H1755 | 0.455 | 0.748 | 0.458 | 0.473 | 0.497 | 0.343 | 0.456 | 0.359 | 0.417 | 0.587 | 0.522 | 0.607 | 0.671 | 0.553 | 0.885 | 1.04 | 0.881 | 0.933 | 0.411 | 0.971
23 | NCI-H1915 | 0.555 | 0.475 | 0.508 | 0.461 | 0.284 | 0.374 | 0.338 | 0.3 | 0.291 | 0.407 | 0.42 | 0.438 | 0.429 | 0.396 | 0.939 | 0.977 | 0.963 | 0.995 | 0.54 | 0.961
24 | NCI-H1975 | 0.284 | 0.284 | 0.281 | 0.32 | 0.41 | 0.36 | 0.394 | 0.343 | 0.39 | 0.782 | 0.898 | 0.673 | 0.672 | 0.691 | 0.383 | 0.376 | 0.421 | 0.315 | 0.288 | 0.354
25 | NCI-H1993 | 0.527 | 0.628 | 0.677 | 0.637 | 0.614 | 0.497 | 0.572 | 0.596 | 0.517 | 0.545 | 0.614 | 0.551 | 0.579 | 0.536 | 1.07 | 1.03 | 1.16 | 1.24 | 0.598 | 1.19
26 | NCI-H2009 | 1.02 | 0.968 | 0.936 | 0.936 | 0.354 | 0.301 | 0.253 | 0.247 | 0.267 | 0.69 | 0.72 | 0.728 | 0.735 | 0.692 | 1.13 | 1.01 | 1.04 | 0.874 | 1.01 | 1.03
27 | NCI-H2023 | 0.262 | 0.246 | 0.245 | 0.2 | 0.671 | 0.789 | 0.601 | 0.55 | 0.625 | 0.352 | 0.343 | 0.355 | 0.297 | 0.248 | 0.998 | 1.13 | 1.01 | 0.911 | 0.241 | 0.349
